ChEMBL document CHEMBL4414590, “Discovery of SIAIS178 as an Effective BCR-ABL Degrader by Recruiting Von Hippel-Lindau (VHL) E3 Ubiquitin Ligase” (J Med Chem, 2019)
Activity calls are given as the source filed them. No cut-off for these calls is given here.

Key:
[1] = molecular target: von Hippel-Lindau disease tumor suppressor/Proto-oncogene tyrosine-protein kinase Src (Homo sapiens) (UniProt P12931+P40337); assay: Protac activity against VHL/Src in human K562 cells assessed as reduction in Src protein levels at 1 to 100 nM incubated for 16 hrs by Western blot analysis; assay type: cell-based
[2] = molecular target: von Hippel-Lindau disease tumor suppressor/Tyrosine-protein kinase Lck (Homo sapiens) (UniProt P06239+P40337); assay: Protac activity against VHL/LCK in human K562 cells assessed as reduction in Lck protein levels at 1 to 100 nM incubated for 16 hrs by Western blot analysis; assay type: cell-based
K562 [3] = assay: Induction of cell death in human K562 cells assessed as reduction in cell viability at 20 times IC50 incubated for 12 hrs followed by drug wash-out and incubation in drug-free medium up to 144 hrs by CCK8 assay; assay type: functional, cell-based
[4] = molecular target: T1, von Hippel-Lindau disease tumor suppressor/Tyrosine-protein kinase ABL1/Breakpoint cluster region protein (Homo sapiens, UniProt P00519+P11274+P40337); assay: Protac activity against VHL/BCR-ABL in human K562 cell lysates assessed as induction of pull down of endogenous ABL at 10 to 100 nM in presence of excess immobilized GST-VBC bait by GST-pull down assay; assay type: subcellular; conditions: Lysate
Target sequence in this assay (P00519 whole entry, looked up): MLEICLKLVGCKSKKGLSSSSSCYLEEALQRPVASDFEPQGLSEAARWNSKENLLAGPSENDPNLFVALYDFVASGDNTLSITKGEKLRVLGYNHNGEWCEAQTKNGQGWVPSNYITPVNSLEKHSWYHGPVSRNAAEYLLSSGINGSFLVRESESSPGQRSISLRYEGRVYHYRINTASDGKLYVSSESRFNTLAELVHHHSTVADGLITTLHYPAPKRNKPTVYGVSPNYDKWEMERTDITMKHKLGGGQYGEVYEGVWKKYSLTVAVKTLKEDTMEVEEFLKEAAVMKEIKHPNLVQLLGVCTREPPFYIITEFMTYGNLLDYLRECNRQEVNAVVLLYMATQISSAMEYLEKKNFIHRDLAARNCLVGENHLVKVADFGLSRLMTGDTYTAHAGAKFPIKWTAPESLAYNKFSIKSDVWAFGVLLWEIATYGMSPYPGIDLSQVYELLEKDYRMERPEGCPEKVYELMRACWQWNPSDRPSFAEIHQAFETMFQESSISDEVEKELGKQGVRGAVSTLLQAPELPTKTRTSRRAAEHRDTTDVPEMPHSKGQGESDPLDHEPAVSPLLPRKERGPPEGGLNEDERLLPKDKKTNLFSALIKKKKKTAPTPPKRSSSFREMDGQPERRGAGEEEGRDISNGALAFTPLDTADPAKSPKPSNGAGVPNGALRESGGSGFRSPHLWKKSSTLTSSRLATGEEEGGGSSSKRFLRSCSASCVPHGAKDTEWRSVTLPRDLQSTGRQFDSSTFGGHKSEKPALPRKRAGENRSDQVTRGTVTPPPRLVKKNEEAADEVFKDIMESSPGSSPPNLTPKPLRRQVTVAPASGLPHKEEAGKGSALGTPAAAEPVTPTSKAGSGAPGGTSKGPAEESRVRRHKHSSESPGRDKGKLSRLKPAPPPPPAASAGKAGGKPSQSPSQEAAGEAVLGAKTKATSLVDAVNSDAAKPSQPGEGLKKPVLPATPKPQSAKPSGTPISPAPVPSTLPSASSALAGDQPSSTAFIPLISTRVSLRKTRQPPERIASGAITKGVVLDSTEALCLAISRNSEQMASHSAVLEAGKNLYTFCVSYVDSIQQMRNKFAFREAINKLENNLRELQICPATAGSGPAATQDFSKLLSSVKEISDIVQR
Target sequence in this assay (P11274 whole entry, looked up): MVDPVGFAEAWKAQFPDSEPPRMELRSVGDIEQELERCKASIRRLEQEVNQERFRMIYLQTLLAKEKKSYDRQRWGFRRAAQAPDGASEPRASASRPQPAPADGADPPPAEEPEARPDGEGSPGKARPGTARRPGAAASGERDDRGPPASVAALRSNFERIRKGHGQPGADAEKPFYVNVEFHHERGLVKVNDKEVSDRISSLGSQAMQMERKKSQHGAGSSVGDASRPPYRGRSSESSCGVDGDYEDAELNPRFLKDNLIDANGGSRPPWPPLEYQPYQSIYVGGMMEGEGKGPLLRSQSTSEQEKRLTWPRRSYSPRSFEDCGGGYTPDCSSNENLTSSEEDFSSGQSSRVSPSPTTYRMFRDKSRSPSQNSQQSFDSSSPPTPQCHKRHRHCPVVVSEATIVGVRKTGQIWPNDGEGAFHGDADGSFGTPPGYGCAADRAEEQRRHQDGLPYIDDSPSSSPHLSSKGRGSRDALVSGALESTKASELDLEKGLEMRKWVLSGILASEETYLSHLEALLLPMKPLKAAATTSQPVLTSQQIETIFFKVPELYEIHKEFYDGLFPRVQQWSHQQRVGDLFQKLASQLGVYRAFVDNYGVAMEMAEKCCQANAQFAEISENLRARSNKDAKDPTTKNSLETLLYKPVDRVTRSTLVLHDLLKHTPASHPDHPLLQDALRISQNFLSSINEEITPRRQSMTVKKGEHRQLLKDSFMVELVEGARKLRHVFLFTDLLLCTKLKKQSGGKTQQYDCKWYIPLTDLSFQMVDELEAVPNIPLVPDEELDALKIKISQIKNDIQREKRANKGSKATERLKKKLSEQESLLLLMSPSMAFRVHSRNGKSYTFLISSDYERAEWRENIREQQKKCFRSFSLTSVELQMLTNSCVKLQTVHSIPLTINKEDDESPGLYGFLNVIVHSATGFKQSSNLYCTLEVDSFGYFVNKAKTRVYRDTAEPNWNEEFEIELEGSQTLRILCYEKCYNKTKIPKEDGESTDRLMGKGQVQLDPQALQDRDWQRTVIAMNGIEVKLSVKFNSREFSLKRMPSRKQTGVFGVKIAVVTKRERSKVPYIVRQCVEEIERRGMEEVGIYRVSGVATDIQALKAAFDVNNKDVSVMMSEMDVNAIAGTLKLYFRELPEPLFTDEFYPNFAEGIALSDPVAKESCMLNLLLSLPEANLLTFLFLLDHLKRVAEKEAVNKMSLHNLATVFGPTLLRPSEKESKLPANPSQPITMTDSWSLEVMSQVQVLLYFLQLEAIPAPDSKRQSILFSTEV
Target sequence in this assay (P40337 whole entry, looked up): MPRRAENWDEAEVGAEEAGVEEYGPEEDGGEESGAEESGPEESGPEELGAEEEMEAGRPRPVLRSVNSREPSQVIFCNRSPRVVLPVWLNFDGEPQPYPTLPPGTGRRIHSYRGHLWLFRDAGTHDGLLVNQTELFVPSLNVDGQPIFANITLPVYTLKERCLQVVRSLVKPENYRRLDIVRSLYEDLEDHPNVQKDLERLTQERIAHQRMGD

[5] = molecular target: von Hippel-Lindau disease tumor suppressor/Tyrosine-protein kinase ABL1 (Homo sapiens) (UniProt P00519+P40337); assay: Protac activity against VHL/c-ABL in human K562 cells assessed as reduction in c-ABL protein levels at 1 to 100 nM incubated for 16 hrs by Western blot analysis; assay type: cell-based
K562 [6] = assay: Growth inhibition of human K562 cells incubated for 2 days by CCK8 assay; assay type: functional, cell-based; conditions: K562, 48 h
[7] = molecular target: von Hippel-Lindau disease tumor suppressor/Platelet-derived growth factor receptor beta (Homo sapiens) (UniProt P09619+P40337); assay: Protac activity against VHL/PDGFRbeta in human K562 cells assessed as reduction in PDGFRbeta protein levels at 1 to 100 nM incubated for 16 hrs by Western blot analysis; assay type: cell-based
[8] = molecular target: T1, von Hippel-Lindau disease tumor suppressor/Tyrosine-protein kinase ABL1/Breakpoint cluster region protein; assay: (§1) Induction of ternary complex formation between VHL and BCR-ABL (unknown origin) expressed in HEK293 cells expressing N-terminal BCR-ABL LgBit fusion protein and N-terminal SmBit-VHL fusion protein incubated for 1 hr by NanoBit technology based luciferase complementation assay; assay type: cell-based
Target sequence in this assay (P00519 whole entry, looked up): as the sequence (P00519 whole entry, looked up) above
Target sequence in this assay (P11274 whole entry, looked up): as the sequence (P11274 whole entry, looked up) above
Target sequence in this assay (P40337 whole entry, looked up): as the sequence (P40337 whole entry, looked up) above

[9] = molecular target: T1, von Hippel-Lindau disease tumor suppressor/Tyrosine-protein kinase ABL1/Breakpoint cluster region protein; assay: Protac activity against VHL/BCR-ABL in NOD/SCID mouse xenografted with luciferse expressing human K562 cells assessed as induction of BCR-ABL degradation at 5 to 15 mg/kg, ip QD for 4 days by Western blotting analysis; assay type: functional, organism-based
Target sequence in this assay (P00519 whole entry, looked up): as the sequence (P00519 whole entry, looked up) above
Target sequence in this assay (P11274 whole entry, looked up): as the sequence (P11274 whole entry, looked up) above
Target sequence in this assay (P40337 whole entry, looked up): as the sequence (P40337 whole entry, looked up) above

K562 [10] = assay: Effect on LYN protein level in human K562 cells at 100 nM incubated for 16 hrs by multiplexed tandem mass spectrometry; assay type: ADME, cell-based; conditions: k562, 16 h, 0.1 µM
[11] = molecular target: Tyrosine-protein kinase ABL1 (Homo sapiens) (UniProt P00519); assay: Binding affinity to human non-phosphorylated ABL1 (S229 to K512 residues) expressed in mammalian expression system assessed as residual binding level at 10 uM by Kinomescan method relative to control
[12] = molecular target: von Hippel-Lindau disease tumor suppressor/Ephrin type-B receptor 4 (Homo sapiens) (UniProt P54760+P40337); assay: Protac activity against VHL/EPHB4 in human K562 cells assessed as reduction in EPHB4 protein levels at 1 to 100 nM incubated for 16 hrs by Western blot analysis; assay type: cell-based
[13] = system: von Hippel-Lindau disease tumor suppressor/Tyrosine-protein kinase ABL1/Breakpoint cluster region protein (Homo sapiens), P00519+P11274+P40337 [F317L]; assay: Protac activity against VHL/BCR-ABL F317L mutant (unknown origin) expressed in human U937 cells assessed as induction of BCR-ABL degradation incubated for 16 hrs by Western blot analysis; assay type: cell-based
K562 [14] = assay: Antitumor activity against luciferse expressing human K562 cells xenografted in NOD/SCID mouse assessed as reduction in tumor burden at 5 to 15 mg/kg, ip QD for 12 days by bioluminescence imaging analysis; assay type: functional, organism-based
HEK293 = assay: Growth inhibition of human HEK293 cells incubated for 2 days by CCK8 assay; assay type: cell-based; conditions: hek293, 48 h
K562 [15] = assay: Effect on BCR-ABL protein levels in human K562 cells at 100 nM up to 24 hrs by Western blot analysis; assay type: ADME, cell-based; conditions: k562, 24 h, 0.1 µM
[16] = Toxicity in NOD/SCID mouse xenografted with luciferse expressing human K562 cells assessed as effect on body weight at 5 to 15 mg/kg, ip QD for 12 days; assay type: organism-based; conditions: in vivo, 288 h
[17] = molecular target: von Hippel-Lindau disease tumor suppressor/Tyrosine-protein kinase ABL2 (Homo sapiens) (UniProt P42684); assay: Protac activity against VHL/BCR-ABL in human K562 cells assessed as reduction in ABL2 protein levels at 100 nM incubated for 16 hrs by multiplexed tandem mass spectrometry
SUP-B15 = assay: Growth inhibition of human SUP-B15 cells incubated for 2 days by CCK8 assay; assay type: functional, cell-based
[18] = molecular target: von Hippel-Lindau disease tumor suppressor/Tyrosine-protein kinase Yes (Homo sapiens) (UniProt P07947+P40337); assay: Protac activity against VHL/YES in human K562 cells assessed as reduction in Yes protein levels at 1 to 100 nM incubated for 16 hrs by Western blot analysis; assay type: cell-based
[19] = molecular target: T1, von Hippel-Lindau disease tumor suppressor/Tyrosine-protein kinase ABL1/Breakpoint cluster region protein; assay: as §1, with “fusion protein pre-treated with 10 uM dasatinib for 2 hrs followed by compound addition at 1 uM and further incubated for” for “fusion protein incubated for”; assay type: cell-based
Target sequence in this assay (P00519 whole entry, looked up): as the sequence (P00519 whole entry, looked up) above
Target sequence in this assay (P11274 whole entry, looked up): as the sequence (P11274 whole entry, looked up) above
Target sequence in this assay (P40337 whole entry, looked up): as the sequence (P40337 whole entry, looked up) above

K562 [20] = assay: Growth inhibition of human K562 cells assessed as reduction in cell density at 20 times IC50 incubated for 12 hrs followed by drug wash-out and incubation in drug-free medium up to 144 hrs by CCK8 assay; assay type: functional, cell-based
[21] = molecular target: T1, von Hippel-Lindau disease tumor suppressor/Tyrosine-protein kinase ABL1/Breakpoint cluster region protein; assay: Protac activity against VHL/BCR-ABL in human K562 cell lysates assessed as induction of pull down of endogenous BCR-ABL at 10 to 100 nM in presence of excess immobilized GST-VBC bait by GST-pull down assay; assay type: subcellular; conditions: Lysate
Target sequence in this assay (P00519 whole entry, looked up): as the sequence (P00519 whole entry, looked up) above
Target sequence in this assay (P11274 whole entry, looked up): as the sequence (P11274 whole entry, looked up) above
Target sequence in this assay (P40337 whole entry, looked up): as the sequence (P40337 whole entry, looked up) above

[22] = molecular target: T1, von Hippel-Lindau disease tumor suppressor/Tyrosine-protein kinase ABL1/Breakpoint cluster region protein; assay: Protac activity against VHL/BCR-ABL in human K562 cells assessed as induction of BCR-ABL degradation by Western blot analysis; assay type: cell-based
[23] = molecular target: T1, von Hippel-Lindau disease tumor suppressor/Tyrosine-protein kinase ABL1/Breakpoint cluster region protein; assay: Protac activity against VHL/BCR-ABL (unknown origin) expressed in human U937 cells assessed as induction of BCR-ABL degradation incubated for 16 hrs by Western blot analysis; assay type: cell-based
Target sequence in this assay (P00519 whole entry, looked up): as the sequence (P00519 whole entry, looked up) above
Target sequence in this assay (P11274 whole entry, looked up): as the sequence (P11274 whole entry, looked up) above
Target sequence in this assay (P40337 whole entry, looked up): as the sequence (P40337 whole entry, looked up) above

[24] = molecular target: von Hippel-Lindau disease tumor suppressor/Tyrosine-protein kinase ABL2 (Homo sapiens) (UniProt P42684+P40337); assay: Protac activity against VHL/ABL2 in human K562 cells assessed as reduction in ABL2 protein levels at 1 to 100 nM incubated for 16 hrs by Western blot analysis; assay type: cell-based
[25] = system: von Hippel-Lindau disease tumor suppressor/Tyrosine-protein kinase ABL1/Breakpoint cluster region protein (Homo sapiens), P00519+P11274+P40337 [G250E]; assay: Protac activity against VHL/BCR-ABL G250E mutant (unknown origin) expressed in human U937 cells assessed as induction of BCR-ABL degradation incubated for 16 hrs by Western blot analysis; assay type: cell-based

Tyrosine-protein kinase ABL1 (Homo sapiens), sequence (P00519 whole entry, the tested form may be a part): as the sequence (P00519 whole entry, looked up) above
von Hippel-Lindau disease tumor suppressor/Tyrosine-protein kinase Lck (Homo sapiens), sequence (P06239 whole entry, looked up): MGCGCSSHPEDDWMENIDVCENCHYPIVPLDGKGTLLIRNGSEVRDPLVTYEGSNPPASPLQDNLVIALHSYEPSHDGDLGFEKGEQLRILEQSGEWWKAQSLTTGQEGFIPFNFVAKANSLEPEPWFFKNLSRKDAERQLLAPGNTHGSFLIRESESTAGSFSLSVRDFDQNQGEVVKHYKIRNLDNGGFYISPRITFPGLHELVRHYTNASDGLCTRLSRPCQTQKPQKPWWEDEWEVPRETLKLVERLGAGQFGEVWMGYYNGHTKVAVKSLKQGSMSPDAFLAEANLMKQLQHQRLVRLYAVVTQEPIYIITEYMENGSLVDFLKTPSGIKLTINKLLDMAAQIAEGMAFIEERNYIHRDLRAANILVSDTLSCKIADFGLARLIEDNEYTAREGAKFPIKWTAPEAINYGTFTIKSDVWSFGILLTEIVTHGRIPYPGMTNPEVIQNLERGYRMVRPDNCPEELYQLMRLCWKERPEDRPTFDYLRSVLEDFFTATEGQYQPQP
von Hippel-Lindau disease tumor suppressor/Tyrosine-protein kinase Lck (Homo sapiens), sequence (P40337 whole entry, looked up): as the sequence (P40337 whole entry, looked up) above

Cc1nc(Nc2ncc(C(=O)Nc3c(C)cccc3Cl)s2)cc(N2CCN(C(=O)CCCCCCC(=O)N[C@H](C(=O)N3C[C@H](O)C[C@H]3C(=O)NCc3ccc(-c4scnc4C)cc3)C(C)(C)C)CC2)n1
Activity [1]: Dose-dependent effect
Activity [2]: inactive
Activity (K562 [3]): Active
Activity [4]: Dose-dependent effect
Activity [5]: Dose-dependent effect
IC50 (K562 [6]): 24 nM
Activity [7]: Dose-dependent effect
Activity [8]: Active
Activity [9]: Dose-dependent effect
Activity (K562 [10]): Non-Toxic
Activity [11]: Active
Activity [12]: Dose-dependent effect
Activity [13]: Dose-dependent effect
Activity (K562 [14]): Active
growth inhibition (GI) (HEK293): Non-Toxic
Activity (K562 [15]): Non-Toxic
Activity [16]: Non-Toxic
Activity [17]: Active
growth inhibition (GI) (SUP-B15): Active
Activity [18]: inactive
Activity [19]: inactive
growth inhibition (GI) (K562 [20]): Active
Activity [21]: Dose-dependent effect
Activity [22]: Dose-dependent effect
DC50 [22]: 8.5 nM
Activity [23]: Dose-dependent effect
Activity [24]: Dose-dependent effect
Activity [25]: Dose-dependent effect
